US9513288B2, “Isoform-selective inhibitors and activators of PDE3 cyclic nucleotide phosphodiesterases” (The United States of America, as represented by the …, priority 2001, dated 2016)

How the values were obtained:
[1] = tested on: PDE3A2; assay: Phosphorylation and 14-3-3 binding of FLAG-tagged PDE3A2 in transfected HEK293 cells; format: cell-based, human
Description: FIGS. 8A-8C Illustrate phosphorylation of PDE3A1 and PDE3A2 in response to PKA and PKC activation. HEK293 cells were transfected with FLAG-tagged PDE3A2 and PDE3A1. (A) Prior to lysis and immunoprecipitation with anti-FLAG antibodies, cells were treated with 1 µM isoproterenol for 90 sec or 10 ng/ml PMA for 15 min. (B) The experiment was carried out in cells incubated in the absence and presence of 100 μM IBMX before treatment with 1 µM isoproterenol for 90 sec. (C) FLAG-tagged PDE3A2 and PDE3A1, affinity-purified from transfected cells using anti-FLAG antibodies, were incubated in the absence or presence of 10 or 100 nM PKA and 200 μM ATP for 20 min at 30° C. Phosphorylation was analyzed by Western blotting with phosphospecific antibodies as indicated.
Furthermore, when affinity-purified FLAG-tagged PDE3A and PDE3A2 were phosphorylated in vitro by PKA, PDE3A2 was phosphorylated more robustly than PDE3A1 at both S312 and S428 (for both isoforms, S312 was phosphorylated more robustly than S428) […].
Activation of PKC by PMA in transfected HEK293 cells results in selective phosphorylation of PDE3A2 at S428: We compared the effects of PKC activation by PMA on the phosphorylation of FLAG-tagged PDE3A1 and PDE3A2 in transfected HEK293 cells.
Illustrative immunoprecipitation and immunoblotting: Endogenous or recombinant human PDE3A, its fragments or mutants, endogenous 14-3-3 or GST-14-3-3 proteins were immunoprecipitated by incubation overnight at 4° C. with anti-FLAG(M2)-coupled agarose beads or glutathione sepharose beads. Beads were centrifuged (5,000×g, 1 min) and washed four times with 1 ml buffer containing 20 mM MOPS pH 7.2, 15 mM MgCl2, 0.5% NP40 and 150 mM NaCl. Proteins were subjected to SDS-PAGE (8% polyacrylamide) and electrophoretic transfer to nitrocellulose membranes. Membranes were blocked using 5% nonfat milk in Tris-buffered saline (50 mM Tris pH 7.5, 150 mM NaCl, 0.1% Tween-20) for 1 h at room temperature and incubated with primary and HRP-conjugated secondary antibodies prepared in 5% (w/v) bovine serum albumin. Protein bands were visualized using an enhanced chemiluminescence detection system.
Treatment of cells with pharmacologic agents: HEK293 cells expressing the human PDE3A constructs were incubated at 37° C. in serum-free medium containing isoproterenol for 90 sec or PMA for 15 min. At the end of the incubation period, cells were solubilized in lysis buffer containing 20 mM MOPS pH 7.2, 15 mM MgCl2, 0.5% NP40, 150 mM NaCl, 5 mM EDTA, protease inhibitor cocktail and phosphatase inhibitor cocktail 3. Cellular debris was removed by centrifugation (1,000×g; 5 min), and cleared supernatants were used in the experiments.

[2] = tested on: PDE3A1; assay: Gel-filtration chromatography and two-dimensional analysis of proteins co-immunoprecipitated with PDE3A1 from transfected HEK293 cells; format: cell-based, human; details: 1 μM isoproterenol 90 sec
Description: FIGS. 5A-5B Illustrate two-dimensional analysis of HEK293 cell proteins co-immunoprecipitated with PDE3A, wherein FLAG-tagged PDE3A1- and PDE3A2-transfected HEK293 cells were treated with 1 μM isoproterenol for 90 sec or 10 ng/ml PMA for 15 min, respectively; untransfected, untreated cells served as controls. PDE3A1 and PDE3A2 were immunoprecipitated with anti-FLAG antibody. PDE3A isoforms and co-immunoprecipitated proteins were eluted with 250 μg/ml of 3×FLAG peptide and submitted to isoelectric focusing followed by SDS-PAGE. Proteins were visualized by silver staining, and spots were quantified and analyzed for inter-gel comparison using PDquest 8.1 software. Experiments were carried out in triplicate, such that (A) Images from one experiment are shown. […]
PKA and PKC modulate the catalytic activity of PDE3A and PDE3A2 through distinct molecular mechanisms: In view of the reported effects of PKA and PKC on PDE3A activity^3-6, we examined the effects of phosphorylation at S312 and S428 on the cAMP-hydrolytic activity of PDE3A isoforms in transfected HEK293 cells. […] To determine whether similar consequences of phosphorylation occur in the case of PDE3A isoforms, protein extracts from transfected HEK293 cells, untreated or exposed to either isoproterenol or PMA, were analyzed by gel-filtration chromatography, measurement of catalytic activity and Western blotting. […]

[3] = isoproterenol 90 sec, PMA 10 ng/ml 15 min, dibutyryl cAMP 1 mM 1 hour, phosphospecific antibodies

Compound: CC(C)NCC(O)c1ccc(O)c(O)c1 (centres unmarked) [isoproterenol]
- phosphorylation of PDE3A2 at S312 in the presence of IBMX ([1]; 100 μM IBMX before isoproterenol for 90 sec): readily phosphorylated at S312
- phosphorylation of PDE3A2 at S312 [1, 3]: little phosphorylation of PDE3A2
- phosphorylation of PDE3A2 at S428 [1, 3]: little phosphorylation of PDE3A2
- elution of PDE3 activity and protein on Superose 6 gel filtration, PDE3A1-transfected cells [2]: pronounced shift of activity and protein from low- to high-molecular-weight peaks
- number of proteins co-immunoprecipitated with PDE3A1 ([2]; isoelectric focusing and SDS-PAGE): increased the number of proteins that co-immunoprecipitated with PDE3A1
